Data from publication PMC6017115, “Inhibitory Effect of Sauchinone on UDP-Glucuronosyltransferase (UGT) 2B7 Activity” (Molecules : A Journal of Synthetic Chemistry and Natural …, 2018).
Marks after values point to notes of the source that are not given here.

Legend:
UGT1A4 = target: T1, UGT1A4 (Homo sapiens, UniProt P22310); assay: Inhibition of UGT1A4 (trifluoperazine glucuronidation) in human liver microsomes; format: in vitro ADME
T1 construct: The reaction mixture containing 0.25 mg/mL protein of HLM; tissue Corning Life Sciences 452156; host or cells: pooled human liver microsomes, 50 donors
T1 sequence (P22310 29-534): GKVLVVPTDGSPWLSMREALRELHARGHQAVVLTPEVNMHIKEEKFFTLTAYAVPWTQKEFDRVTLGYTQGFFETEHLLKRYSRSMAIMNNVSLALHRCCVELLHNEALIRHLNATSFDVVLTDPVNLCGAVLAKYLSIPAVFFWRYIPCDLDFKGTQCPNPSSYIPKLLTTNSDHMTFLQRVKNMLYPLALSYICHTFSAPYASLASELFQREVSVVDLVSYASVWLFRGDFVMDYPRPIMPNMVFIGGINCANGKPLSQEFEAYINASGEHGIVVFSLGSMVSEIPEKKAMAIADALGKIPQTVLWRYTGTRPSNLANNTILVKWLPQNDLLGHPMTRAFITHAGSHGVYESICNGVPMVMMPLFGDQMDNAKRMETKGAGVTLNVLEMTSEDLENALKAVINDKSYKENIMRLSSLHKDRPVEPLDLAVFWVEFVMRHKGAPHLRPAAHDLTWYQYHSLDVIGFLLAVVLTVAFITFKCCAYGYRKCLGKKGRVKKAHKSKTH
Experimental: (§1) Their IC50 values were compared to that of sauchinone. […] UGT-mediated activities in the presence of sauchinone as an inhibitor were expressed as percentages of corresponding control values (in absence of sauchinone). From percentages of control activity versus inhibitor concentrations, a sigmoid shaped curve was fitted to the data and IC50 as an enzyme inhibition parameter was calculated by fitting the Hill equation to the data using GraphPad Prism 5 (GraphPad Software Inc., San Diego, CA, USA).

UGT1A9 = target: T2, UGT1A9 (Homo sapiens, UniProt O60656); assay: Inhibition of UGT1A9 (propofol glucuronidation) in human liver microsomes; format: in vitro ADME; conditions: substrate 100 μM propofol, mean (minimum–maximum)
T2 construct: The reaction mixture containing 0.25 mg/mL protein of HLM; tissue Corning Life Sciences 452156; host or cells: pooled human liver microsomes, 50 donors
T2 sequence (O60656 26-530): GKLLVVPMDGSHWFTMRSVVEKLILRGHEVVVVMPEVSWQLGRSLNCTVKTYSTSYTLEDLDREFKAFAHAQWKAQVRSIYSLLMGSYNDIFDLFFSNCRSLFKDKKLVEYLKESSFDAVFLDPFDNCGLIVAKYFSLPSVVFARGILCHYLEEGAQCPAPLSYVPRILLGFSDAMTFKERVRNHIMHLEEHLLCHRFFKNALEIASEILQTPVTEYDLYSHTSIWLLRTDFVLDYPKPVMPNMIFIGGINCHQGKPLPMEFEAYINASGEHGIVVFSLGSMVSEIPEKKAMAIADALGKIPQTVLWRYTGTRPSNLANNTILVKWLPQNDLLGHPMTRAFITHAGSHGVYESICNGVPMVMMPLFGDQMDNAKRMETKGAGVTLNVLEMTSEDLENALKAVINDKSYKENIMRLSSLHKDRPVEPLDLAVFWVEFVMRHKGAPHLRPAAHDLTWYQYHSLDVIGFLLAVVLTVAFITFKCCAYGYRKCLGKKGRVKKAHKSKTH
Experimental: as §1

[1] = Pharmacokinetic study of zidovudine with or without sauchinone in mice; conditions: for CLNR / AUC(0-t) / AUC / clearance / CL renal / MRT / Vd / half-life / Ae0–24 h / GI24 h: mean ± SD, n = 11; for AUC(0-t) / AUC / clearance / CL renal / MRT / Vd / half-life: mouse, plasma, iv, 15 mg/kg; for AUC(0-t): AUC480 min; for AUC: time zero to infinity; for clearance: CL; for CL renal: CLR; for Vd: Vss; for half-life: t1/2, mice; for Ae0–24 h: zidovudine excreted into urine for 24 h; for GI24 h: zidovudine remaining or excreted in GI at 24 h
UGT2B7 = target: T3, UGT2B7 (Homo sapiens, UniProt P16662); assay: Enzyme kinetic assay (Ki, Dixon plot) of UGT2B7-mediated zidovudine glucuronidation; conditions: human, pH 7.6
T3 sequence (P16662 24-529): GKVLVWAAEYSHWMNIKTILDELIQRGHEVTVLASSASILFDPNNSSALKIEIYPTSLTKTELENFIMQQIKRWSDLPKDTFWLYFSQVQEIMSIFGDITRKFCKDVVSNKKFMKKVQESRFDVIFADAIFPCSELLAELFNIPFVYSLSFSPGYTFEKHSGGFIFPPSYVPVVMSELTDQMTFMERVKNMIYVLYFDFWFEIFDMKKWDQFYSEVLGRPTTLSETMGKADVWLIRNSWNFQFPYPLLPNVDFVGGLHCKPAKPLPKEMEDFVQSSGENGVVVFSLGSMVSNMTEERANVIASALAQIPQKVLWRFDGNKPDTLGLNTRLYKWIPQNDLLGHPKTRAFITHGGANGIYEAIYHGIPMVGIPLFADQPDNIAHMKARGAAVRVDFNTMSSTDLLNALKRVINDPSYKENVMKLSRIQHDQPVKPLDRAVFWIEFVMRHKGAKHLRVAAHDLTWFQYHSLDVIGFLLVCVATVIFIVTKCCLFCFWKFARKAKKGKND
Experimental: Inhibitory effects of sauchinone on UGT1A1, 1A3, 1A4, 1A6, 1A9, and 2B7 activities were evaluated using HLMs. […] Spiked volume of UGT cocktail set was 1% (v/v) of total volume of mixture. […] The reaction was initiated by adding 5 mM UDPGA to a final volume of 150 μL and incubated at 37 °C for 15 or 60 min in a thermomixer at 500 rpm. Each reaction was stopped by adding 150 μL of ice-cold methanol containing 50 ng/mL IS. These mixtures were then centrifuged (12,000 rpm for 10 min at 4 °C) and 5 μL of the supernatant was injected into a UPLC-MS/MS system. […] Their IC50 values were compared to that of sauchinone. All inhibitors were dissolved in methanol (except for hecogenin, which was dissolved in dimethyl sulfoxide) and serially diluted to the required concentrations using the same solutions. The final concentration of organic solvent of inhibitors was 1% (v/v). All studies were performed in triplicate and mean values were used in the analysis. The half maximal inhibition constant (IC50) of sauchinone on UGT isoforms was estimated using GraphPad program.
Based on IC50 values, Ki values of sauchinone for UGT1A6 and 2B7 were determined. Concentrations of 0–200 μM of sauchinone were used. Other procedures were similar to those mentioned above in the study of reversible inhibitory effects of sauchinone. Inhibitory characteristics of sauchinone were initially estimated by nonlinear least squares regression analysis and Ki values were determined by Dixon plots.

UGT1A1 = target: T4, UGT1A1 (Homo sapiens, UniProt P22309); assay: Inhibition of UGT1A1 (β-estradiol glucuronidation) in human liver microsomes; format: in vitro ADME; conditions: substrate 10 μM β-estradiol, mean (minimum–maximum)
T4 construct: The reaction mixture containing 0.25 mg/mL protein of HLM; tissue Corning Life Sciences 452156; host or cells: pooled human liver microsomes, 50 donors
T4 sequence (P22309 26-533): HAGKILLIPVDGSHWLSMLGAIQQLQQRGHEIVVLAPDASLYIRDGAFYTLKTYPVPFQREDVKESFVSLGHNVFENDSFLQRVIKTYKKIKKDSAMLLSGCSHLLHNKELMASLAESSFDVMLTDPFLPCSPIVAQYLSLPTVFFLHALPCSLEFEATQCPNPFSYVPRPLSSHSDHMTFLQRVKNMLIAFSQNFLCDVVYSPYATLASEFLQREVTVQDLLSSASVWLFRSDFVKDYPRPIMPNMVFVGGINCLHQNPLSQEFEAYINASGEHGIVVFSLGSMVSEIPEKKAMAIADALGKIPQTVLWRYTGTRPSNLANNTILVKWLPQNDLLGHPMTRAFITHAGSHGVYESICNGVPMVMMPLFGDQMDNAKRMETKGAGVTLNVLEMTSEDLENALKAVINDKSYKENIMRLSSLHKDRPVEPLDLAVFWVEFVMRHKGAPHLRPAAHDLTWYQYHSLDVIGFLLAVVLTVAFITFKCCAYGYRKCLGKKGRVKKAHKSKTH
Experimental: as §1

UGT1A6 = target: T5, UGT1A6 (Homo sapiens, UniProt P19224); assay: Inhibition of UGT1A6 (serotonin glucuronidation) in human liver microsomes; format: in vitro ADME
T5 construct: tissue Corning Life Sciences 452156; host or cells: pooled human liver microsomes
T5 sequence (P19224 27-532): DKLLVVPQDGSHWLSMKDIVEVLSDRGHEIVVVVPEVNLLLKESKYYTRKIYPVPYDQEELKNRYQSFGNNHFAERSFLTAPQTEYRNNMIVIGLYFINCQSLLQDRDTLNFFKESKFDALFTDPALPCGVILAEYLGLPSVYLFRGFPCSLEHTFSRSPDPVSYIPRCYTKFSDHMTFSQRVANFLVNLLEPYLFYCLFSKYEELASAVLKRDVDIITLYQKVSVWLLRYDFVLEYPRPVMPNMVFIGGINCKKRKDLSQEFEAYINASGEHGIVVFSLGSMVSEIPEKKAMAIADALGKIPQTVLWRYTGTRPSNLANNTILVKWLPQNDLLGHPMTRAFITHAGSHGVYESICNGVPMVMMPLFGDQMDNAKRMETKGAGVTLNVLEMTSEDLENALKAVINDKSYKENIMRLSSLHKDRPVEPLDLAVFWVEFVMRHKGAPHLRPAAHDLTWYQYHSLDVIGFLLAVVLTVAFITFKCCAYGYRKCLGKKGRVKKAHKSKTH
Experimental: as §1

[2] = substrate: NCCc1c[nH]c2ccc(O)cc12; assay: purified protein, by the assay type; conditions: other: without sauchinone; pH 7.6; 37.0 °C
[3] = mice, zidovudine 15 mg/kg iv with oral 100 mg/kg sauchinone
[4] = mice, zidovudine 15 mg/kg iv with vehicle
[5] = mice, zidovudine 15 mg/kg iv, oral 100 mg/kg sauchinone

Molecule: C[C@@H]1CC[C@@]2(OC1)O[C@H]1C[C@H]3[C@@H]4CC[C@H]5C[C@@H](O)CC[C@]5(C)[C@H]4CC(=O)[C@]3(C)[C@H]1[C@@H]2C [Hecogenin]
- IC50 (UGT1A4): 3.99 µM

Molecule: O=C(O)c1cccnc1Nc1cccc(C(F)(F)F)c1 [Niflumic acid]
- IC50 (UGT1A9): 0.755 µM

Molecule: Cc1cn([C@H]2C[C@H](N=[N+]=[N-])[C@@H](CO)O2)c(=O)[nH]c1=O [zidovudine]
- CLNR [1, 3]: 24.5 ± 9.31 ^a mL/min/kg
- CLNR [1, 4]: 34.8 ± 10.5 mL/min/kg
- decrease of CL of zidovudine with sauchinone compared to without [1, 5]: 29.3%
- decrease of CLNR of zidovudine with sauchinone compared to without [1, 5]: 29.6%
- increase of AUC480 min of zidovudine with sauchinone compared to without [1, 5]: 53.1%
- AUC(0-t) [1, 3]: 5.73 µg·h/mL
- AUC(0-t) [1, 4]: 3.78 µg·h/mL
- AUC [1, 3]: 5.82 µg·h/mL
- AUC [1, 4]: 3.8 µg·h/mL
- clearance [1, 3]: 2.92 ± 0.966 L/h/kg
- clearance [1, 4]: 4.12 ± 1.12 L/h/kg
- CL renal [1, 3]: 1.44 ± 0.481 L/h/kg
- CL renal [1, 4]: 2.04 ± 0.672 L/h/kg
- MRT [1, 3]: 0.725 h
- MRT [1, 4]: 0.93 h
- Vd [1, 3]: 2.1 ± 1.23 L/kg
- Vd [1, 4]: 3.31 ± 1.67 L/kg
- half-life ([1]; zidovudine 15 mg/kg iv with oral 100 mg/kg sauchinone): 2.97 ± 1.55 h
- half-life ([1]; zidovudine 15 mg/kg iv with vehicle): 3.45 ± 2.22 h
- Ae0–24 h [1, 3]: 50.2 ± 8.41 % of dose
- Ae0–24 h [1, 4]: 50.3 ± 8.01 % of dose
- GI24 h [1, 3]: 0.321 ± 0.646 % of dose
- GI24 h [1, 4]: 0.672 ± 0.999 % of dose
- Km (UGT2B7): 85 µM

Molecule: O=c1cc(-c2ccccc2)oc2cc(O)cc(O)c12 [Chrysin]
- IC50 (UGT1A1): 28.3 µM

Molecule: Oc1cccc2ccccc12 [1-Naphthol]
- IC50 (UGT1A6): 35.2 µM

B1: UGT1A6 (Homo sapiens) (protein)
chain: T5 sequence (P19224 27-532)
- Km [2]: 126 µM
- Vmax [2]: 174 μM/min/mg protein
